Test results from ChEMBL document CHEMBL1134917, “Substituted 4-anilino-7-phenyl-3-quinolinecarbonitriles as Src kinase inhibitors” (Bioorg Med Chem Lett, 2002).

Assays:
[1] = Inhibitory concentration required for the Src dependent cell proliferation using Src-transformed fibroblasts
[2] = molecular target: Proto-oncogene tyrosine-protein kinase Src (Homo sapiens, UniProt P12931); assay: Inhibitory concentration against Src protein tyrosine kinase
[3] = molecular target: Cyclin-dependent kinase 4 (Homo sapiens) (UniProt P11802); assay: Inhibition of Cyclin-dependent kinase 4 (CDK4) at ug/mL; conditions: concentration not given here
Cyclin-dependent kinase 4 (Homo sapiens), sequence (P11802 whole entry): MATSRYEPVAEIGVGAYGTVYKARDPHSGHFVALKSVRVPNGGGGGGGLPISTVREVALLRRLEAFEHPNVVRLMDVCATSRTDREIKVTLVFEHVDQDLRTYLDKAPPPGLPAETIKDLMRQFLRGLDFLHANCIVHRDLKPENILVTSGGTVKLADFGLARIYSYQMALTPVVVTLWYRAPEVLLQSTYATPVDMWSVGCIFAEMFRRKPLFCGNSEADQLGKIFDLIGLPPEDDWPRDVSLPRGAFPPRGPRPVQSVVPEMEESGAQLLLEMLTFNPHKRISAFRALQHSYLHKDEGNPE

[4] = molecular target: Epidermal growth factor receptor (Homo sapiens, UniProt P00533); assay: Inhibition of Epidermal growth factor receptor
Epidermal growth factor receptor, sequence (P00533 whole entry): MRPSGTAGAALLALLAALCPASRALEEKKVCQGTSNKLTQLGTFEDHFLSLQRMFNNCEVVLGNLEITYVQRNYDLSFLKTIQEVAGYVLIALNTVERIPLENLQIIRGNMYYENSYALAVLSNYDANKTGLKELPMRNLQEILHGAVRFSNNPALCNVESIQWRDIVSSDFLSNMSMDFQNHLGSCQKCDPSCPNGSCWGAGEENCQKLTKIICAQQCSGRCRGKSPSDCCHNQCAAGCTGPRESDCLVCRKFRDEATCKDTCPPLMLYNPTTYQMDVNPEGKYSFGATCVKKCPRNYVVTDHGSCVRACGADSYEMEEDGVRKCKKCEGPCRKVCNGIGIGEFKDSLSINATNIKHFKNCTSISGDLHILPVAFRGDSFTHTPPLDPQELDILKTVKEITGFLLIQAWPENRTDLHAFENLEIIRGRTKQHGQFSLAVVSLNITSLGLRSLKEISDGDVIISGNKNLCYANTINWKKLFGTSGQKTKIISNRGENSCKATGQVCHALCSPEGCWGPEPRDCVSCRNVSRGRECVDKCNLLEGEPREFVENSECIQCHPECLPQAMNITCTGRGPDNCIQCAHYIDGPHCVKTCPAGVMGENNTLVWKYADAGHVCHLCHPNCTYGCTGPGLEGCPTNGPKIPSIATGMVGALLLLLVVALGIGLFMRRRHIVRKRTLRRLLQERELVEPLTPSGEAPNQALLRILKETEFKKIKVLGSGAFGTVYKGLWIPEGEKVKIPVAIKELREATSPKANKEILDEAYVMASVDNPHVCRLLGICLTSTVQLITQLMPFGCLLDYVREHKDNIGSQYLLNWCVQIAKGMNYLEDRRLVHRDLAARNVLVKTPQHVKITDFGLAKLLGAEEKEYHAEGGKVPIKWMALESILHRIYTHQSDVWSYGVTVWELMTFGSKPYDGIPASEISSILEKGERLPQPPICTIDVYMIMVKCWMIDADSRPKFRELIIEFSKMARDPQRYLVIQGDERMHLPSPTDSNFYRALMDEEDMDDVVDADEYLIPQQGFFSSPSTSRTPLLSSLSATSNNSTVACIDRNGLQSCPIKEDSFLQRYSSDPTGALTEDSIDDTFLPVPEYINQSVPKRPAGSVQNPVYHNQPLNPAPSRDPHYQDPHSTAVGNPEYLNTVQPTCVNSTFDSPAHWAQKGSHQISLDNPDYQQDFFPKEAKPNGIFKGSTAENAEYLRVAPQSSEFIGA

[5] = molecular target: Dual specificity mitogen-activated protein kinase kinase 1 (Homo sapiens, UniProt Q02750); assay: Inhibition of Dual specificity mitogen-activated protein kinase kinase, MEK
Dual specificity mitogen-activated protein kinase kinase 1, sequence (Q02750 whole entry): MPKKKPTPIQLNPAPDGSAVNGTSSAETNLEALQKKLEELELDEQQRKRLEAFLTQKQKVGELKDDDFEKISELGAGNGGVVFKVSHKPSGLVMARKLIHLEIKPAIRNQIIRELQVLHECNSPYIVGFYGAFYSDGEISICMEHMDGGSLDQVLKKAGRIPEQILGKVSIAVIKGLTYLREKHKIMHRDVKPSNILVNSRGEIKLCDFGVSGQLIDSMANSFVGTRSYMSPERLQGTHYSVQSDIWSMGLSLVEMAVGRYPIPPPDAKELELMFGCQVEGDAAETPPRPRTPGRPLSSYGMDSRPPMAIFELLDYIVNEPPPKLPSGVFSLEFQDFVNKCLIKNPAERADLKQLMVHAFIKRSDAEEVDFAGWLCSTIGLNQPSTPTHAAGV

Proto-oncogene tyrosine-protein kinase Src, sequence (P12931 2-536 limits assumed): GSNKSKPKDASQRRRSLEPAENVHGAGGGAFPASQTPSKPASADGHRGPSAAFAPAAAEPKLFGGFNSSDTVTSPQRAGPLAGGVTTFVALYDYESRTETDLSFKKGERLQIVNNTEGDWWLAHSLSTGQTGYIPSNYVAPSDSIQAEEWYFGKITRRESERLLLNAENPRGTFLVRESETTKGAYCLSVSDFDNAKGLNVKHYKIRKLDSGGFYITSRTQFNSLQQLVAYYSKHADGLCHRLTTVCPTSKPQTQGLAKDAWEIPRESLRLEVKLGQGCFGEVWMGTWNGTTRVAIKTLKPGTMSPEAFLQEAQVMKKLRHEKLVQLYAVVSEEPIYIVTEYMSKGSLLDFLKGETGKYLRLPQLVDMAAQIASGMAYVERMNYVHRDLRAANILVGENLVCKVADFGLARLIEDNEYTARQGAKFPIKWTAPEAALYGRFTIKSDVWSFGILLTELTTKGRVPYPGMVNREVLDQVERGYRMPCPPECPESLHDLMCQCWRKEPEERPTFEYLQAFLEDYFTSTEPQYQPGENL

Row | IC50 [2] | inhibition [3] | IC50 [4] | IC50 [5] | SMILES | IC50 [1]
1 | 74 nM |  |  |  | COc1cc(Nc2c(C#N)cnc3cc(-c4cccc(CCN5CCOCC5)c4)c(OC)cc23)c(Cl)cc1Cl | 12000 nM
2 | 4000 nM |  |  |  | COc1cc(Nc2c(C#N)cnc3cc(-c4ccccc4CN4CCOCC4)ccc23)c(Cl)cc1Cl | > 10000 nM
3 | 3.3 nM | 10% | 3000 nM | 280 nM | COc1cc(Nc2c(C#N)cnc3cc(-c4ccc(CN5CCOCC5)cc4)ccc23)c(Cl)cc1Cl | 520 nM
4 | 29 nM |  |  |  | COc1cc(Nc2c(C#N)cnc3cc(-c4cccc(CCN5CCOCC5)c4)ccc23)c(Cl)cc1Cl | 3200 nM
5 | 11 nM |  |  |  | COc1cc(Nc2c(C#N)cnc3cc(-c4ccc(CCN5CCOCC5)cc4)c(OC)cc23)c(Cl)cc1Cl | 1300 nM
6 | 3.7 nM |  |  |  | CCN1CCN(CCc2ccc(-c3ccc4c(Nc5cc(OC)c(Cl)cc5Cl)c(C#N)cnc4c3)cc2)CC1 | 1900 nM
7 | 7 nM |  |  |  | CCN1CCN(Cc2ccc(-c3cc4ncc(C#N)c(Nc5cc(OC)c(Cl)cc5Cl)c4cc3OC)cc2)CC1 | 2000 nM
8 |  |  |  |  | COc1cc(Nc2c(C#N)cnc3cc(OCCCN4CCN(C)CC4)c(OC)cc23)c(Cl)cc1Cl [BOSUTINIB] | 100 nM
9 | 4.7 nM |  |  |  | COc1cc(Nc2c(C#N)cnc3cc(-c4ccc(CN5CCN(CCO)CC5)cc4)ccc23)c(Cl)cc1Cl | 71 nM
10 | 15 nM |  |  |  | COc1cc(Nc2c(C#N)cnc3cc(-c4ccc(CN5CCOCC5)cc4)c(OC)cc23)c(Cl)cc1Cl | 1500 nM
11 | 14 nM |  |  |  | COc1cc(Nc2c(C#N)cnc3cc(-c4ccc(CCN5CCOCC5)cc4)ccc23)c(Cl)cc1Cl | 1000 nM
12 | 3 nM |  |  |  | CCN1CCN(Cc2ccc(-c3ccc4c(Nc5cc(OC)c(Cl)cc5Cl)c(C#N)cnc4c3)cc2)CC1 | 960 nM
13 | 150 nM |  |  |  | COc1cc(Nc2c(C#N)cnc3cc(-c4cccc(CN5CCOCC5)c4)c(OC)cc23)c(Cl)cc1Cl | 8100 nM
14 | 28 nM |  |  |  | COc1cc(Nc2c(C#N)cnc3cc(-c4cccc(CN5CCOCC5)c4)ccc23)c(Cl)cc1Cl | 3900 nM
15 | 14 nM |  |  |  | COc1cc(Nc2c(C#N)cnc3cc(-c4cccc(CN5CCN(C)CC5)c4)ccc23)c(Cl)cc1Cl | 2800 nM
